Experimental data published in the supplement of paper PMC8741786.
Values after ≈ are worked out from the molar mass of the structure shown.

What was measured:
Assay in all cases: minimum inhibitory concentration (ETEST)
Neisseria bacilliformis = conditions: isolate id (sample isolate): Co000780_5; population: general population; antibiotic use in previous 6 months: No
Experimental: (§1)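 Oropharyngeal Neisseria isolates from MSM and employees in Belgium were identified to species by MALDI-TOF MS. MICs of azithromycin, ceftriaxone and ciprofloxacin were determined by ETEST on GC agar after 24 h at 36.5 °C and 5-7% CO2, in mg/L. Values beyond the strip range are reported as >256 (azithromycin) or <0.016 (ceftriaxone); isolates that did not grow are NA.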

Neisseria cinerea = conditions: population: general population, antibiotic use in previous 6 months: No
Experimental: as §1

Neisseria lactamica = conditions: population: general population, antibiotic use in previous 6 months: No
Experimental: as §1

Neisseria mucosa/macacae = test system: Neisseria mucosa/macacae
Experimental: as §1

Neisseria oralis = conditions: population: general population, antibiotic use in previous 6 months: No
Experimental: as §1

[1] = test system: Neisseria subflava/flavescens/perflava
Experimental: as §1

CO/N=C(\C(=O)N[C@@H]1C(=O)N2C(C(=O)O)=C(CSc3nc(=O)c(O)nn3C)CS[C@H]12)c1csc(N)n1 [ceftriaxone]
Conditions	minimum inhibitory concentration [µg/mL]
Neisseria bacilliformis	1.5 (≈ 2.7 µM)

Conditions	minimum inhibitory concentration [µg/mL]
Neisseria cinerea, isolate id (sample isolate): Co000769_3	< 0.016
Neisseria cinerea, isolate id (sample isolate): Co000776_4	< 0.016
Neisseria cinerea, isolate id (sample isolate): Co000776_5	< 0.016
Neisseria cinerea, isolate id (sample isolate): Co000782_1	< 0.016
Neisseria lactamica, isolate id (sample isolate): Co000761_1	< 0.016
Neisseria lactamica, isolate id (sample isolate): Co000771_1	< 0.016
Neisseria oralis, isolate id (sample isolate): Co000761_7	0.064 (≈ 0.115 µM)
Neisseria oralis, isolate id (sample isolate): Co000763_1	0.032 (≈ 0.0577 µM)
Neisseria oralis, isolate id (sample isolate): Co000766_2	0.023 (≈ 0.0415 µM)
Neisseria oralis, isolate id (sample isolate): Co000770_1	0.064 (≈ 0.115 µM)
Neisseria oralis, isolate id (sample isolate): Co000774_1	0.032 (≈ 0.0577 µM)
Neisseria oralis, isolate id (sample isolate): Co000776_1	0.047 (≈ 0.0847 µM)
Neisseria oralis, isolate id (sample isolate): Co000776_1.1	0.047 (≈ 0.0847 µM)
Neisseria oralis, isolate id (sample isolate): Co000779_2	0.094 (≈ 0.169 µM)
Neisseria oralis, isolate id (sample isolate): Co000790_5	0.064 (≈ 0.115 µM)

Conditions	minimum inhibitory concentration [µg/mL]
Neisseria mucosa/macacae, isolate id (sample isolate): 19041762_2, population: MSM, antibiotic use in previous 6 months: Yes	0.032 (≈ 0.0577 µM)
Neisseria mucosa/macacae, isolate id (sample isolate): 19051904_1, population: MSM, antibiotic use in previous 6 months: Yes	0.047 (≈ 0.0847 µM)
Neisseria mucosa/macacae, isolate id (sample isolate): 19052394_2, population: MSM, antibiotic use in previous 6 months: Yes	0.032 (≈ 0.0577 µM)
Neisseria mucosa/macacae, isolate id (sample isolate): 19062968_1, population: MSM, antibiotic use in previous 6 months: Yes	0.064 (≈ 0.115 µM)
Neisseria mucosa/macacae, isolate id (sample isolate): 19081774_2, population: MSM, antibiotic use in previous 6 months: No	0.094 (≈ 0.169 µM)
Neisseria mucosa/macacae, isolate id (sample isolate): 19111422_4, population: MSM, antibiotic use in previous 6 months: No	0.032 (≈ 0.0577 µM)
Neisseria mucosa/macacae, isolate id (sample isolate): 19111422_7, population: MSM, antibiotic use in previous 6 months: No	0.032 (≈ 0.0577 µM)
Neisseria mucosa/macacae, isolate id (sample isolate): Co000770_5, population: general population, antibiotic use in previous 6 months: No	0.047 (≈ 0.0847 µM)
Neisseria mucosa/macacae, isolate id (sample isolate): Co000771_4, population: general population, antibiotic use in previous 6 months: No	0.064 (≈ 0.115 µM)
Neisseria mucosa/macacae, isolate id (sample isolate): Co000772_3, population: general population, antibiotic use in previous 6 months: No	0.032 (≈ 0.0577 µM)
Neisseria mucosa/macacae, isolate id (sample isolate): Co000773_3, population: general population, antibiotic use in previous 6 months: No	0.032 (≈ 0.0577 µM)
Neisseria mucosa/macacae, isolate id (sample isolate): Co000779_1, population: general population, antibiotic use in previous 6 months: No	0.125 (≈ 0.225 µM)
Neisseria mucosa/macacae, isolate id (sample isolate): Co000783_3, population: general population, antibiotic use in previous 6 months: No	0.032 (≈ 0.0577 µM)
Neisseria mucosa/macacae, isolate id (sample isolate): Co000783_6, population: general population, antibiotic use in previous 6 months: No	0.032 (≈ 0.0577 µM)
Neisseria mucosa/macacae, isolate id (sample isolate): Co000787_3, population: general population, antibiotic use in previous 6 months: No	0.094 (≈ 0.169 µM)
Neisseria mucosa/macacae, isolate id (sample isolate): Co000788_1, population: general population, antibiotic use in previous 6 months: No	0.032 (≈ 0.0577 µM)
Neisseria mucosa/macacae, isolate id (sample isolate): Co000788_4, population: general population, antibiotic use in previous 6 months: No	0.032 (≈ 0.0577 µM)
[1], isolate id (sample isolate): 19041762_1, population: MSM, antibiotic use in previous 6 months: Yes	0.016 (≈ 0.0289 µM)
[1], isolate id (sample isolate): 19041762_1.1, population: MSM, antibiotic use in previous 6 months: Yes	0.023 (≈ 0.0415 µM)
[1], isolate id (sample isolate): 19041780_1, population: MSM, antibiotic use in previous 6 months: Yes	0.064 (≈ 0.115 µM)
[1], isolate id (sample isolate): 19042150_1, population: MSM, antibiotic use in previous 6 months: Yes	0.5 (≈ 0.902 µM)
[1], isolate id (sample isolate): 19042150_3, population: MSM, antibiotic use in previous 6 months: Yes	0.047 (≈ 0.0847 µM)
[1], isolate id (sample isolate): 19042756_1, population: MSM, antibiotic use in previous 6 months: Yes	0.023 (≈ 0.0415 µM)
[1], isolate id (sample isolate): 19042756_2, population: MSM, antibiotic use in previous 6 months: Yes	0.023 (≈ 0.0415 µM)
[1], isolate id (sample isolate): 19043201_1.1, population: MSM, antibiotic use in previous 6 months: No	0.047 (≈ 0.0847 µM)
[1], isolate id (sample isolate): 19043201_2.1, population: MSM, antibiotic use in previous 6 months: No	1 (≈ 1.8 µM)
[1], isolate id (sample isolate): 19043201_3, population: MSM, antibiotic use in previous 6 months: No	0.064 (≈ 0.115 µM)
[1], isolate id (sample isolate): 19043274_3, population: MSM, antibiotic use in previous 6 months: Yes	0.064 (≈ 0.115 µM)
[1], isolate id (sample isolate): 19050474_1, population: MSM, antibiotic use in previous 6 months: No	0.047 (≈ 0.0847 µM)
[1], isolate id (sample isolate): 19050514_1, population: MSM, antibiotic use in previous 6 months: Yes	0.047 (≈ 0.0847 µM)
[1], isolate id (sample isolate): 19050949_1, population: MSM, antibiotic use in previous 6 months: No	0.032 (≈ 0.0577 µM)
[1], isolate id (sample isolate): 19050949_2, population: MSM, antibiotic use in previous 6 months: No	0.023 (≈ 0.0415 µM)
[1], isolate id (sample isolate): 19050949_2.1, population: MSM, antibiotic use in previous 6 months: No	0.016 (≈ 0.0289 µM)
[1], isolate id (sample isolate): 19051904_2, population: MSM, antibiotic use in previous 6 months: Yes	0.064 (≈ 0.115 µM)
[1], isolate id (sample isolate): 19051904_3, population: MSM, antibiotic use in previous 6 months: Yes	0.064 (≈ 0.115 µM)
[1], isolate id (sample isolate): 19052394_1, population: MSM, antibiotic use in previous 6 months: Yes	0.032 (≈ 0.0577 µM)
[1], isolate id (sample isolate): 19052394_1.1, population: MSM, antibiotic use in previous 6 months: Yes	0.023 (≈ 0.0415 µM)
[1], isolate id (sample isolate): 19060089_1, population: MSM, antibiotic use in previous 6 months: Yes	0.047 (≈ 0.0847 µM)
[1], isolate id (sample isolate): 19062994_1, population: MSM, antibiotic use in previous 6 months: Yes	0.047 (≈ 0.0847 µM)
[1], isolate id (sample isolate): Co000761_2, population: general population, antibiotic use in previous 6 months: No	0.023 (≈ 0.0415 µM)
[1], isolate id (sample isolate): Co000761_3, population: general population, antibiotic use in previous 6 months: No	0.032 (≈ 0.0577 µM)
[1], isolate id (sample isolate): Co000761_5, population: general population, antibiotic use in previous 6 months: No	0.016 (≈ 0.0289 µM)
[1], isolate id (sample isolate): Co000761_6, population: general population, antibiotic use in previous 6 months: No	0.016 (≈ 0.0289 µM)
[1], isolate id (sample isolate): Co000762_3, population: general population, antibiotic use in previous 6 months: No	0.094 (≈ 0.169 µM)
[1], isolate id (sample isolate): Co000762_4, population: general population, antibiotic use in previous 6 months: No	0.094 (≈ 0.169 µM)
[1], isolate id (sample isolate): Co000763_2, population: general population, antibiotic use in previous 6 months: No	0.032 (≈ 0.0577 µM)
[1], isolate id (sample isolate): Co000764_1, population: general population, antibiotic use in previous 6 months: No	0.032 (≈ 0.0577 µM)
[1], isolate id (sample isolate): Co000764_2, population: general population, antibiotic use in previous 6 months: No	0.023 (≈ 0.0415 µM)
[1], isolate id (sample isolate): Co000765_2, population: general population, antibiotic use in previous 6 months: No	0.047 (≈ 0.0847 µM)
[1], isolate id (sample isolate): Co000765_3, population: general population, antibiotic use in previous 6 months: No	0.032 (≈ 0.0577 µM)
